According to article PMC4065032, “Biochemical Characterization of Quinolinic Acid Phosphoribosyltransferase from Mycobacterium tuberculosis H37Rv and Inhibition of Its Activity by Pyrazinamide” (PLoS ONE, 2014):

Legend:
hQAPRTase = details: cited from earlier work
SEC = biological target: the molecule itself; assay: SEC

For `O=C(O)c1cccnc1C(=O)O` [QA, 2,3-pyridinedicarboxylic acid], the Km (hQAPRTase) is given as 22 µM and the kcat (hQAPRTase; recalculated from Vmax) is given as 0.04 s⁻¹.

B1: Quinolinic acid phosphoribosyltransferase from Mycobacterium tuberculosis H37Rv (recombinant, C-terminal 6xHis) (enzyme)
chain: MGLSDWELAAARAAIARGLDEDLRYGPDVTTLATVPASATTTASLVTREAGVVAGLDVALLTLNEVLGTNGYRVLDRVEDGARVPPGEALMTLEAQTRGLLTAERTMLNLVGHLSGIATATAAWVDAVRGTKAKIRDTRKTLPGLRALQKYAVRTGGGVNHRLGLGDAALIKDNHVAAAGSVVDALRAVRNAAPDLPCEVEVDSLEQLDAVLPEKPELILLDNFAVWQTQTAVQRRDSRAPTVMLESSGGLSLQTAATYAETGVDYLAVGALTHSVRVLDIGLDM
notes: also called MtQAPRTase; QAPRTase; not shown: His6, C-terminal, kept
In the case of B1, the “stoichiometry N” value (SEC) is reported as 2.
